Laboratory results taken from ChEMBL document CHEMBL5576134, “Targeting Pancreatic Cancer with Novel Nicolaioidesin C Derivatives: Molecular Mechanism, In Vitro, and In Vivo Evaluations” (J Med Chem, 2024).
Calls of active or inactive are those of the source. The rule behind the calls is not given here.

Experiments:
MIA PaCa-2 [1] = assay: Preferential cytotoxicity against human MIA PaCa-2 cells in DMEM measured after 24 hrs by WST-8 cell counting analysis; type: functional, cell-based; conditions: MIA PaCa-2, 24 h
PANC-1 [2] = assay: Preferential cytotoxicity against human PANC-1 cells in nutrient-deprived medium measured after 24 hrs by WST-8 cell counting analysis; type: functional
PANC-1 [3] = assay: Preferential cytotoxicity against human PANC-1 cells in DMEM measured after 24 hrs by WST-8 cell counting analysis; type: functional, cell-based; conditions: PANC-1, 24 h
MIA PaCa-2 [4] = assay: Preferential cytotoxicity against human MIA PaCa-2 cells in nutrient-deprived medium measured after 24 hrs by WST-8 cell counting analysis; type: functional
[5] = Selectivity index, ratio of IC50 for preferential cytotoxicity against human MIA PaCa-2 cells in DMEM to PC50 for preferential cytotoxicity against human MIA PaCa-2 cells in nutrient-deprived medium; type: functional
[6] = Selectivity index, ratio of IC50 for preferential cytotoxicity against human PANC-1 cells in DMEM to PC50 for preferential cytotoxicity against human PANC-1 cells in nutrient-deprived medium; type: functional
[7] = Toxicity in BALB/c/Nu/Nu mouse xenografted with human MIA PaCa-2 cells assessed as change in body weight at 60 mg/kg, ip administered 5 times a week for 4 weeks; type: organism-based; conditions: in vivo, 672 h
MIA PaCa-2 [8] = assay: Antitumor activity against human MIA PaCa-2 cells xenografted in BALB/c/Nu/Nu mouse assessed as reduction in final tumor weight at 60 mg/kg, ip administered 5 times a week for 4 weeks (reference value: […]); type: functional
MIA PaCa-2 [9] = assay: Antitumor activity against human MIA PaCa-2 cells xenografted in BALB/c/Nu/Nu mouse assessed as tumor volume at 60 mg/kg, ip administered 5 times a week for 4 weeks and measured on day 32 (reference value: 1417 mm3); type: functional; conditions: time 32 day
MIA PaCa-2 [10] = assay: Antitumor activity against human MIA PaCa-2 cells xenografted in BALB/c/Nu/Nu mouse assessed as reduction in number of blood vessels in skin at 60 mg/kg, ip administered 5 times a week for 4 weeks; type: functional, organism-based

Row | SMILES | IC50 (MIA PaCa-2 [1]) [µM] | PC50 (PANC-1 [2]) [µM] | IC50 (PANC-1 [3]) [µM] | PC50 (MIA PaCa-2 [4]) [µM] | Selectivity Index [5] | Selectivity Index [6] | Activity [7] | Activity (MIA PaCa-2 [8]) [mg] | Activity (MIA PaCa-2 [9]) [mm3] | Activity (MIA PaCa-2 [10])
1 | COc1cc(O)c(C(=O)[C@H]2CC=C(CCC=C(C)C)C[C@@H]2c2cc(F)cc(F)c2)c(O)c1 | 17.9 | 0.73 | 13.5 | 0.79 | 22.6 | 18.6 |  |  |  | 
2 | COc1cc(O)c(C(=O)[C@H]2CC=C(CCC=C(C)C)C[C@@H]2c2ccccc2)c(O)c1 | 61.4 | 0.55 | 25.3 | 2.76 | 22.3 | 46.3 |  |  |  | 
3 | COc1cccc(O)c1C(=O)[C@H]1CC=C(CCC=C(C)C)C[C@@H]1c1ccccc1 | > 100 | 3.3 | 33.9 | 31.8 |  | 10.3 |  |  |  | 
4 | CC(C)=CCCC1=CC[C@H](C(=O)c2c(O)cccc2O)[C@@H](c2cc(F)ccc2F)C1 (relative stereo) | 20.8 | 0.53 | 11.2 | 0.77 | 26.9 | 21.1 |  |  |  | 
5 | CC(C)=CCCC1=CC[C@H](C(=O)c2c(O)cccc2O)[C@@H](c2ccc(F)cc2F)C1 (relative stereo) | 11.1 | 0.27 | 7.18 | 0.34 | 32.6 | 26.1 |  |  |  | 
6 | COc1cc(O)c(C(=O)[C@H]2CC=C(CCC=C(C)C)C[C@@H]2c2cccc(F)c2F)c(O)c1 (relative stereo) | 33.8 | 0.64 | 24.4 | 1.01 | 33.4 | 38 |  |  |  | 
7 | CC(C)=CCCC1=CC[C@H](C(=O)c2c(O)cccc2O)[C@@H](c2ccccc2F)C1 (relative stereo) | 25 | 0.47 | 13.8 | 0.84 | 29.6 | 29.5 |  |  |  | 
8 | COc1cc(O)c(C(=O)[C@H]2CC=C(CCC=C(C)C)C[C@@H]2c2ccc(C)cc2)c(O)c1 (relative stereo) | 93.3 | 0.56 | > 100 | 3.65 | 25.5 |  |  |  |  | 
9 | CC(C)=CCCC1=CC[C@H](C(=O)c2c(O)cccc2O)[C@@H](c2ccc(F)c(F)c2)C1 (relative stereo) | 23.1 | 0.33 | 11 | 0.68 | 33.8 | 33.5 |  |  |  | 
10 | COc1cc(O)c(C(=O)[C@H]2CC=C(CCC=C(C)C)C[C@@H]2c2c(F)cccc2F)c(O)c1 (relative stereo) | 26.3 | 1.49 | 19.4 | 1.54 | 17 | 13 |  |  |  | 
11 | COc1cccc(OC)c1C(=O)[C@H]1CC=C(CCC=C(C)C)C[C@@H]1c1ccccc1 (relative stereo) | > 100 | 1.66 | 40 | 13.6 |  | 24.1 |  |  |  | 
12 | CC(C)=CCCC1=CC[C@H](C(=O)c2c(O)cccc2O)[C@@H](c2cccc(Cl)c2)C1 (relative stereo) | 29.1 | 0.85 | 14.8 | 1.09 | 26.8 | 17.4 |  |  |  | 
13 | COc1cc(O)c(C(=O)[C@H]2CC=C(CCC=C(C)C)C[C@@H]2c2cc(F)ccc2F)c(O)c1 (relative stereo) | 26.6 | 0.5 | 17.1 | 0.81 | 32.7 | 34.4 |  |  |  | 
14 | CC(C)=CCCC1=CC[C@H](C(=O)c2c(O)cccc2O)[C@@H](c2ccc(Cl)cc2Cl)C1 (relative stereo) | 22.2 | 0.43 | 10 | 0.78 | 28.6 | 23.5 |  |  |  | 
15 | COc1cc(O)c(C(=O)[C@H]2CC=C(CCC=C(C)C)C[C@@H]2c2ccc(F)cc2F)c(O)c1 (relative stereo) | 20.2 | 0.97 | 21 | 0.63 | 32 | 21.6 |  |  |  | 
16 | COc1ccc([C@H]2CC(CCC=C(C)C)=CC[C@@H]2C(=O)c2c(O)cccc2O)cc1 (relative stereo) | > 100 | 1.08 | 56.7 | 4.73 |  | 52.8 |  |  |  | 

Row | SMILES | IC50 (MIA PaCa-2 [1]) [µM] | PC50 (PANC-1 [2]) [µM] | IC50 (PANC-1 [3]) [µM] | PC50 (MIA PaCa-2 [4]) [µM] | Selectivity Index [5] | Selectivity Index [6] | Activity [7] | Activity (MIA PaCa-2 [8]) [mg] | Activity (MIA PaCa-2 [9]) [mm3] | Activity (MIA PaCa-2 [10])
17 | COc1cc(O)c(C(=O)[C@H]2CC=C(CCC=C(C)C)C[C@@H]2c2cccc(F)c2)c(O)c1 (relative stereo) | 39.9 | 1.16 | 29.6 | 1.21 | 32.9 | 25.6 |  |  |  | 
18 | CC(C)=CCCC1=CC[C@H](C(=O)c2c(O)cccc2O)[C@@H](c2cc(F)cc(F)c2)C1 (relative stereo) | 19.7 | 0.33 | 10.5 | 0.75 | 26.2 | 31.6 |  |  |  | 
19 | CC(C)=CCCC1=CC[C@H](C(=O)c2c(O)cccc2O)[C@@H](c2ccccc2Cl)C1 (relative stereo) | 29 | 0.69 | 15.4 | 1.08 | 26.7 | 22.2 |  |  |  | 
20 | COc1cc(O)c(C(=O)[C@H]2CC=C(CCC=C(C)C)C[C@@H]2c2ccc(Cl)cc2)c(O)c1 (relative stereo) | 71.9 | 0.41 | 39.1 | 3.02 | 23.8 | 94.5 |  |  |  | 
21 | CC(C)=CCCC1=CC[C@H](C(=O)c2c(O)cccc2O)[C@@H](c2ccc(Cl)cc2)C1 (relative stereo) | 32.6 | 0.68 | 86 | 1.3 | 25 | 126.8 |  |  |  | 
22 | COc1cc(O)c(C(=O)[C@H]2CC=C(CCC=C(C)C)C[C@@H]2c2ccc(F)c(F)c2)c(O)c1 (relative stereo) | 27.1 | 0.54 | 15.5 | 0.69 | 39.3 | 28.5 |  |  |  | 
23 | CC(C)=CCCC1=CC[C@H](C(=O)c2c(O)cccc2O)[C@@H](c2cccc(F)c2)C1 (relative stereo) | 30.8 | 1.43 | 16 | 1.23 | 25.1 | 11.2 |  |  |  | 
24 | COc1cc(O)c(C(=O)[C@H]2CC=C(CCC=C(C)C)C[C@@H]2c2ccc(F)cc2)c(O)c1 (relative stereo) | > 100 | 0.39 | > 100 | 1.01 |  |  |  |  |  | 
25 | CC(C)=CCCC1=CC[C@H](C(=O)c2c(O)cccc2O)[C@@H](c2ccc(F)cc2)C1 (relative stereo) | 34.4 | 0.37 | > 100 | 0.89 | 38.6 |  |  |  |  | 
26 | COc1cc(O)c(C(=O)[C@H]2CC=C(CCC=C(C)C)C[C@@H]2c2ccccc2F)c(O)c1 (relative stereo) | 33.7 | 0.72 | 28.5 | 0.85 | 39.6 | 39.3 |  |  |  | 
27 | CC(C)=CCCC1=CC[C@H](C(=O)c2c(O)cccc2O)[C@@H](c2cccc(Cl)c2Cl)C1 (relative stereo) | 20.3 | 0.45 | 10.5 | 0.62 | 32.9 | 23.5 |  |  |  | 
28 | COc1ccc([C@H]2CC(CCC=C(C)C)=CC[C@@H]2C(=O)c2c(O)cc(OC)cc2O)cc1 (relative stereo) | 102 | 0.45 | 50 | 1.93 | 52.9 | 110 |  |  |  | 
29 | CC(C)=CCCC1=CC[C@H](C(=O)c2c(O)cccc2O)[C@@H](c2ccccc2)C1 (relative stereo) | 58.2 | 0.4 | 47.2 | 1.79 | 32.5 | 117 |  |  |  | 
30 | COc1ccc(C(=O)[C@H]2CC=C(CCC=C(C)C)C[C@@H]2c2ccccc2)c(O)c1 (relative stereo) | > 100 | 7.32 | 24.2 | 59.3 |  | 3.3 |  |  |  | 
31 | CC(C)=CCCC1=CC[C@H](C(=O)c2c(O)cccc2O)[C@@H](c2c(F)cccc2F)C1 (single isomer, unassigned) | 28.7 | 1.34 | 21.6 | 1.52 | 18.9 | 16.1 |  |  |  | 
32 | Nc1ccn([C@@H]2O[C@H](CO)[C@@H](O)C2(F)F)c(=O)n1 [GEMCITABINE] |  |  |  |  |  |  | Non-Toxic | 227 | 632 | Active
